The values below come from ChEMBL document CHEMBL1123958, “Synthesis and antiviral properties of (E)-5-(2-bromovinyl)-2'-deoxycytidine-related compounds” (J Med Chem, 1988).

The structures appear in SMILES notation. Where only a bound is given, the exact number is not on record here.

The subject of the test is Vaccinia virus. In words: Concentration required to reduce vaccinia virus induced cytopathogenicity in rabbit cell kidney culture. The test is classed as functional, organism-based. The conditions noted are these: Orthopoxvirus vaccinia. Background: Damage to the host cells serves as the signal in cytopathic effect assays.
`CC(=O)OC[C@H]1O[C@@H](n2cc(/C=C/Br)c(=O)[nH]c2=O)C[C@@H]1OC(C)=O` showed a Concentration of 40 µg/mL.
The compound `O=c1[nH]c(=O)n([C@H]2C[C@H](O)[C@@H](CO)O2)cc1/C=C/Br` [BRIVUDINE] registered a Concentration of 10 µg/mL.
In turn, `O=c1nc(-n2cncn2)c(/C=C/Br)cn1C1CC(O)C(CCl)O1` (centres undefined) gave a Concentration of over 100 µg/mL.
In turn, `CC(=O)OC[C@H]1O[C@@H](n2cc(/C=C/Br)c(-n3cncn3)nc2=O)C[C@@H]1OC(C)=O` had a Concentration of 20 µg/mL.
In turn, `Nc1nc(=O)n([C@H]2C[C@H](O)[C@@H](CO)O2)cc1/C=C/Br` came in with a Concentration of over 400 µg/mL.
The same measure for `CC(=O)OC[C@H]1O[C@@H](n2cc(C)c(-n3cncn3)nc2=O)C[C@@H]1OC(C)=O`: over 40 µg/mL.
For the compound `Cc1cn(C2CC(O)C(CCl)O2)c(=O)nc1-n1cncn1` (centres undefined), the Concentration is over 10 µg/mL.
In the case of `Cc1cn([C@H]2C[C@H](O)[C@@H](CO)O2)c(=O)nc1-n1cncn1`, the Concentration was over 40 µg/mL.
`O=c1nc(-n2cncn2)c(/C=C/Br)cn1[C@H]1C[C@H](O)[C@@H](CO)O1` registered a Concentration of 7 µg/mL.
